Results published in article PMC9046087, “Structural basis of tethered agonism of the adhesion GPCRs ADGRD1 and ADGRF1” (Nature, 2022).
Positions count from the first letter of the chain named. One block for each molecule: values may come before it. Ends that are not written are not given here.

Key:
ADGRF1 [1] = target: T1, ADGRF1 (Homo sapiens, UniProt Q5T601); test: BRET assay using TRUPATH biosensors, Gi activation of ADGRF1; assay type: cell-based; conditions: ADGRF1 WT; for Emax (mean ± s.e.m.): n = 3; for EC50: n = 3, read-out: pEC50 (mean ± s.e.m.) (converted)
T1 construct: Flag (N); expressed in transfected cells; host or cells: HEK293F
T1 sequence (Q5T601 20-910): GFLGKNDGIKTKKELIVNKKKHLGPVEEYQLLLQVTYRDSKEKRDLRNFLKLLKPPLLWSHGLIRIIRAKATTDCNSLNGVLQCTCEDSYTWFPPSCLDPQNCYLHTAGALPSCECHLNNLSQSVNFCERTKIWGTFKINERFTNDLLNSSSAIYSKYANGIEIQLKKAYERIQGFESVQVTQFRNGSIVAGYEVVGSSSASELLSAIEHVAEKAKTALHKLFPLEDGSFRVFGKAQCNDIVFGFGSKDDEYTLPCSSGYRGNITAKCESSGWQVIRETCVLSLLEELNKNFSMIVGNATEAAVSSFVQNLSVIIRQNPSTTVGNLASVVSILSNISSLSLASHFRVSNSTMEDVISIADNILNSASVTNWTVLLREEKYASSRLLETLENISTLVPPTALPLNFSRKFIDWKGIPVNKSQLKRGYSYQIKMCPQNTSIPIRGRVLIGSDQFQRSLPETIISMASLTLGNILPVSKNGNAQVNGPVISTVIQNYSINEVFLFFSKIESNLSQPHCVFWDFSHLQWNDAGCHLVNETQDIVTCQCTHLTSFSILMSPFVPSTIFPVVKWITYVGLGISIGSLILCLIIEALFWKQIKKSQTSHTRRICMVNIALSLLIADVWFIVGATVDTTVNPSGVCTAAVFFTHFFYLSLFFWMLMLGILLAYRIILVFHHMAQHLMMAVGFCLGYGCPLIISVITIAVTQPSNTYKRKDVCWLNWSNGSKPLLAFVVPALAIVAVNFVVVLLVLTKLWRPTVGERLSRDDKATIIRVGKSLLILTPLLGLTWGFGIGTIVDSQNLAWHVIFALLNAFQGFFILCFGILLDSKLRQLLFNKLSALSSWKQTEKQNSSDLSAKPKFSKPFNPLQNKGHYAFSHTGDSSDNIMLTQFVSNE
Method: (§1) To study the synthetic stalk peptide-induced G protein activation of ADGRD1 and ADGRF1, a BRET assay using TRUPATH biosensors was conducted to measure the proximal interaction between RLuc8 fused to the Gα subunit and GFP2 fused to the Gγ subunit. The TRUPATH suite of biosensors was obtained from Addgene (Addgene kit no. 1000000163) as a gift from B. Roth, including GαsS-RLuc8, Gαi1-RLuc8, Gβ3 and Gγ9-GFP2 as previously described.
(§2) The wild-type or mutant ADGRD1 and ADGRF1 were transiently co-transfected with plasmids encoding Gα-RLuc8 (GαsS-RLuc8 for Gs activation assay; Gαi1-RLuc8 for Gi activation assay), Gβ3 and Gγ9-GFP2 at a ratio of 2:1:1:1 (receptor plasmid, 800 ng; G protein subunit plasmids, 400 ng for each) in 2 ml HEK293F cells at a density of 1.2 × 10^6 cells per ml. Cell cultivation and receptor surface expression measurement were performed as described above. The cells were plated into 96-well white plates (40,000 cells per well) in 60 μl of assay buffer and incubated at 37 °C for 30 min. Then 10 μl of freshly prepared 50 μM coelenterazine 400a (Nanolight Technologies) was added. […] The cells were stimulated with 30 μl of synthetic stalk peptide at different concentrations and the BRET signals were monitored continuously five times. The last measurements were used in data analysis. The BRET ratios were calculated as the ratio of the GFP2 emission to RLuc8 emission.

ADGRD1 = target: T2, ADGRD1 (Homo sapiens, UniProt Q6QNK2); test: BRET assay using TRUPATH biosensors, G protein activation of ADGRD1; assay type: cell-based; conditions: Gs, ADGRD1 WT, n = 3; for EC50: read-out: pEC50 (mean ± s.e.m.) (converted)
T2 construct: Flag (N); expressed in transfected cells; host or cells: HEK293F
T2 sequence (Q6QNK2 26-874): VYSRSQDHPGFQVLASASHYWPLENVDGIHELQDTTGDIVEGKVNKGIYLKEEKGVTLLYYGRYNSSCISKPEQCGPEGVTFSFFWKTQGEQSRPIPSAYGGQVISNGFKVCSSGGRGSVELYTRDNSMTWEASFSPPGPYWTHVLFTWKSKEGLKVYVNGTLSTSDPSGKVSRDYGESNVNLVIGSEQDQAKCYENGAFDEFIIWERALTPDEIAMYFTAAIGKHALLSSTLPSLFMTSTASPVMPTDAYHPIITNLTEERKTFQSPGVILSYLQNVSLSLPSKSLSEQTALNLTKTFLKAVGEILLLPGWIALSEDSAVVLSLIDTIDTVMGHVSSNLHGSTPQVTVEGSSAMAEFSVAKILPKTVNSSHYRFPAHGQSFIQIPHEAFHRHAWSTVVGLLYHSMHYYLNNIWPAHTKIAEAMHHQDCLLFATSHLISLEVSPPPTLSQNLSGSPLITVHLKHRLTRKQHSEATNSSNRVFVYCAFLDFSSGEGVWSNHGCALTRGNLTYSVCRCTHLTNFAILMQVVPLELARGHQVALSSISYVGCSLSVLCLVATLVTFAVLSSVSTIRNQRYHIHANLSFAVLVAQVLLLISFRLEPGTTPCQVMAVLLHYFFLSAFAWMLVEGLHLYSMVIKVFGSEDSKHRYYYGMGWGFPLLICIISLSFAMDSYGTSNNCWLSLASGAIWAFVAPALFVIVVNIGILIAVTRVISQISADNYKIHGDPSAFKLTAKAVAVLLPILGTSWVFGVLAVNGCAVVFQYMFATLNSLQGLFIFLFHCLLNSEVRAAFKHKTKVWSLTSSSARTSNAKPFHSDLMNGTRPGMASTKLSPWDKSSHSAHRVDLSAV
Method: as §1, §2

ADGRF1 [2] = test: Cell-surface expression by flow cytometry, ADGRF1; assay type: cell-based, human; conditions: anti-Flag antibody, three independent measurements in duplicate
Method: The wild-type ADGRD1 and ADGRF1 and mutants used in functional studies were constructed into a pTT5 vector with a Flag tag at the N terminus for receptor expression measurement. The basal activity of ADGRD1 and ADGRF1 in mediating Gs signalling was measured by a cAMP accumulation assay using a LANCE Ultra cAMP detection kit (PerkinElmer) following the manufacturer’s instruction. In brief, 2 ml HEK293F cells (Invitrogen; cells were routinely tested for mycoplasma contamination) at a density of 1.2 × 10^6 cells per ml were transiently transfected with 2,000 ng plasmid of the wild-type or mutant receptor and cultured at 37 °C for 48 h with 5% CO2 atmosphere in a shaker shaking at 220 rpm. After collection, the cell-surface expression of the receptors was measured by incubating 10 μl cells with 15 μl monoclonal anti-Flag M2-FITC antibody (Sigma; 1:120 diluted in TBS supplemented with 4% BSA and 20% viability staining solution 7-AAD (Invitrogen)) at 4 °C for 20 min. After incubation, 175 μl TBS buffer was added and the fluorescent signal was measured using a flow cytometry reader (Guava easyCyte HT, Millipore).

[3] = ADGRF1 constructs (pF1 Gi part of table)

Emax (mean ± s.e.m.) (ADGRF1 [1]): 108 ± 7 % of WT | EC50 (ADGRF1 [1]): 380 nM
Molecule: TSASILMSPFVP [pF1 (F569^S3A)]

Emax (mean ± s.e.m.) (ADGRD1): 79 ± 10 % of WT | EC50 (ADGRD1): 263 nM
Molecule: TNFAILAQVVPLE [pD1 (M551^S7A)]

Emax (mean ± s.e.m.) (ADGRF1 [1]): 82 ± 8 % of WT | EC50 (ADGRF1 [1]): 132 nM
Molecule: CC[C@H](C)[C@H](NC(=O)[C@H](C)NC(=O)[C@H](Cc1ccccc1)NC(=O)[C@H](CC(N)=O)NC(=O)[C@@H](N)[C@@H](C)O)C(=O)N[C@@H](CC(C)C)C(=O)N[C@@H](CCSC)C(=O)N[C@@H](CCC(N)=O)C(=O)N[C@H](C(=O)N[C@H](C(=O)N1CCC[C@H]1C(=O)N[C@@H](CC(C)C)C(=O)N[C@@H](CCC(=O)O)C(=O)O)C(C)C)C(C)C [pD1]

Emax (mean ± s.e.m.) (ADGRD1): 69 ± 13 % of WT | EC50 (ADGRD1): 724 nM
Molecule: TNAAILMQVVPLE [pD1 (F547^S3A)]

Emax (mean ± s.e.m.) (ADGRF1 [1]): 101 ± 12 % of WT | EC50 (ADGRF1 [1]): 676 nM
Molecule: TSFSIAMSPFVP [pF1 (L572^S6A)]

Emax (mean ± s.e.m.) (ADGRD1): 53 ± 5 % of WT | EC50 (ADGRD1): 166 nM
Molecule: TNFAIAMQVVPLE [pD1 (L550^S6A)]

Emax (mean ± s.e.m.) (ADGRF1 [1]): 87 ± 11 % of WT | EC50 (ADGRF1 [1]): 501 nM
Molecule: TSFSILASPFVP [pF1 (M573^S7A)]

B1: W804^6.53bA (protein, UniProt Q5T601 20-910, looked up, variant W804A)
Adhesion G-protein coupled …: T1 sequence (Q5T601 20-910) with W785A
Cell-surface expression (% of WT) (ADGRF1 [2]; [3]): 93 ± 4 % of WT

B2: H820^7.39bA (protein, UniProt Q5T601 20-910, looked up, variant H820A)
Adhesion G-protein coupled …: T1 sequence (Q5T601 20-910) with H801A
Cell-surface expression (% of WT) (ADGRF1 [2]; [3]): 77 ± 1 % of WT

B3: M675^3.47bA (protein, UniProt Q5T601 20-910, looked up, variant M675A)
Adhesion G-protein coupled …: T1 sequence (Q5T601 20-910) with M656A
Cell-surface expression (% of WT) (ADGRF1 [2]; [3]): 107 ± 2 % of WT

B4: G702^4.45bY (protein, UniProt Q5T601 20-910, looked up, variant G702Y)
Adhesion G-protein coupled …: T1 sequence (Q5T601 20-910) with G683Y
Cell-surface expression (% of WT) (ADGRF1 [2]; [3]): 87 ± 12 % of WT | Cell-surface expression (% of WT) (ADGRF1 [2]; ADGRF1 constructs, in parallel to A8-induced Gi activation): 94 ± 1 % of WT | Cell-surface expression (% of WT) (ADGRF1 [2]; ADGRF1 constructs, in parallel to A8-induced Gs activation): 104 ± 2 % of WT

B5: N827^7.46bA (protein, UniProt Q5T601 20-910, looked up, variant N827A)
Adhesion G-protein coupled …: T1 sequence (Q5T601 20-910) with N808A
Cell-surface expression (% of WT) (ADGRF1 [2]; [3]): 97 ± 21 % of WT

B6: V689^ICL2A (protein, UniProt Q5T601 20-910, looked up, variant V689A)
Adhesion G-protein coupled …: T1 sequence (Q5T601 20-910) with V670A
Cell-surface expression (% of WT) (ADGRF1 [2]; [3]): 112 ± 3 % of WT | Cell-surface expression (% of WT) (ADGRF1 [2]; ADGRF1 constructs, in parallel to pF1-induced Gs activation): 114 ± 10 % of WT
